Reference: patent US20230159469A1, “NOVEL PHTHALAZINE DERIVATIVE HAVING ECTONUCLOEOTIDE PYROPHOSPHATASE/PHOSPHODIESTE RASE INHIBITORY ACTIVITY, AND USE THEREOF” (TXINNO BIOSCIENCE INC., priority 2020, published 2023)
Structures can show the parent of a compound that is named as a salt.

Each compound was assayed against T1, human recombinant ENPP1 (Homo sapiens, UniProt P22413) (assay: ENPP1 enzyme assay with cGAMP substrate (AMP-Glo luminescence)). Settings: human recombinant ENPP1 3 ng/reaction, cGAMP 5 μM, 37° C. 90 minutes, read-out: Enzymatic activity (ENPP1 IC50).
T1 construct: purchased R & D systems
T1 sequence (P22413 1-925): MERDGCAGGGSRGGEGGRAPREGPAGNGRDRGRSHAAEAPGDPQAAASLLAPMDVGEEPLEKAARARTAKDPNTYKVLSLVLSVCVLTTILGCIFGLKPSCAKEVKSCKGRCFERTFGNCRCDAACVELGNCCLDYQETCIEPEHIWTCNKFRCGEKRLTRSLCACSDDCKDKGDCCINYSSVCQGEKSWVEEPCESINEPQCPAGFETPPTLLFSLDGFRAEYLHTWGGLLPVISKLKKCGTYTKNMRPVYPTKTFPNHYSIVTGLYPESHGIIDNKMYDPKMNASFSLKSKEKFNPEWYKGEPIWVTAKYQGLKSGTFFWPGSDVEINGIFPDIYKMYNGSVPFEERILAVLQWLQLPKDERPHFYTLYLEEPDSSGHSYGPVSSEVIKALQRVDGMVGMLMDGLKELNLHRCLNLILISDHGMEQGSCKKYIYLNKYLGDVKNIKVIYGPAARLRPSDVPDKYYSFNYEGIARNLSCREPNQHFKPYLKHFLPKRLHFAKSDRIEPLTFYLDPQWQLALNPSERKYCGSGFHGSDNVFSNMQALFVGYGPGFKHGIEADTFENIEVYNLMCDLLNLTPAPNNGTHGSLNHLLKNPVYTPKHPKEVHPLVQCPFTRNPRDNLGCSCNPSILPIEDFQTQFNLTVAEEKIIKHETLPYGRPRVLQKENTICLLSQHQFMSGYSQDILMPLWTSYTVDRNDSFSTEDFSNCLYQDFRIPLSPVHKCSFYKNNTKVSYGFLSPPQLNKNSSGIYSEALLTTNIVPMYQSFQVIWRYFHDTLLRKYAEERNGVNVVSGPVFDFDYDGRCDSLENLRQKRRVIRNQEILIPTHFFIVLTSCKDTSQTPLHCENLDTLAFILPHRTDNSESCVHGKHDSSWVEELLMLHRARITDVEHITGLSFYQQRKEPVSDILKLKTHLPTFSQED
Type: biochemical
How it was run: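 Human ENPP1 hydrolysis of 5 μM cGAMP was run for 90 min at 37° C in 50 mM Tris pH 8.5, 250 mM NaCl, 0.5 mM CaCl2, 1 μM ZnCl2, 5% glycerol, 1% DMSO. AMP product was quantified by AMP-Glo luminescence; IC50 came from 3-parameter fits of % residual activity, averaged over at least two runs.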
`NS(=O)(=O)Nc1ccc(-c2n[nH]c(=O)c3ccccc23)cc1` [Compound No. 91, N-(4-(4-oxo-3,4-dihydrophthalazin-1-yl)phenyl)sulfamide] showed an IC50 of 1000 to 10000 nM. Work on `Cn1nc(-c2ccc(NS(N)(=O)=O)cc2)c2ccccc2c1=O` [Compound No. 92, N-(4-(3-methyl-4-oxo-3,4-dihydrophthalazin-1-yl)phenyl)sulfamide] yielded an IC50 of less than 1000 nM. With `NS(=O)(=O)Nc1ccc(-c2nn(Cc3ccccc3)c(=O)c3ccccc23)cc1` [Compound No. 93, N-(4-(3-benzyl-4-oxo-3,4-dihydrophthalazin-1-yl)phenyl)sulfamide] the IC50 was greater than 10000 nM. `Cn1nc(-c2cccc(CNS(N)(=O)=O)c2)c2ccccc2c1=O` [Compound No. 94, N-(3-(3-methyl-4-oxo-3,4-dihydrophthalazin-1-yl)benzyl)sulfamide trifluoroacetic acid] showed an IC50 of less than 1000 nM. In the case of `NS(=O)(=O)NCc1cccc(-c2n[nH]c(=O)c3ccccc23)c1` [Compound No. 95, N-(3-(3-oxo-3,4-dihydrophthalazin-1-yl)benzyl)sulfamide hydrochloride], the IC50 is reported as less than 1000 nM. `NS(=O)(=O)NCc1ccc(-c2n[nH]c(=O)c3ccccc23)cc1` [Compound No. 96, N-(4-(4-oxo-3,4-dihydrophthalazin-1-yl)benzyl)sulfamide hydrochloride] gave an IC50 of less than 1000 nM. For `Cn1nc(-c2ccc(CNS(N)(=O)=O)cc2)c2ccccc2c1=O` [Compound No. 97, N-(4-(3-methyl-4-oxo-3,4-dihydrophthalazin-1-yl)benzyl)sulfamide hydrochloride], the IC50 was less than 1000 nM. For `CCn1nc(-c2ccc(CNS(N)(=O)=O)cc2)c2ccccc2c1=O` [Compound No. 98, N-(4-(3-ethyl-4-oxo-3,4-dihydrophthalazin-1-yl)benzyl)sulfamide hydrochloride], the IC50 was 1000 to 10000 nM. Work on `CC(C)n1nc(-c2ccc(CNS(N)(=O)=O)cc2)c2ccccc2c1=O` [Compound No. 99, N-(4-(3-isopropyl-4-oxo-3,4-dihydrophthalazin-1-yl)benzyl)sulfamide trifluoroacetic acid] yielded an IC50 greater than 10000 nM. `NS(=O)(=O)NCc1ccc(-c2nn(-c3ccccc3)c(=O)c3ccccc23)cc1` [Compound No. 100, N-(4-(4-oxo-3-phenyl-3,4-dihydrophthalazin-1-yl)benzyl)sulfamide hydrochloride] was tested, and the IC50 was less than 1000 nM. In the case of `NS(=O)(=O)NCc1ccc(-c2nn(Cc3ccccc3)c(=O)c3ccccc23)cc1` [Compound No. 101, N-(4-(3-benzyl-4-oxo-3,4-dihydrophthalazin-1-yl)benzyl)sulfamide hydrochloride], the IC50 is reported as 1000 to 10000 nM. `NS(=O)(=O)NCc1ccc(-c2nn(Cc3ccc(F)cc3)c(=O)c3ccccc23)cc1` [Compound No. 102, N-(4-(3-(4-fluorobenzyl)-4-oxo-3,4-dihydrophthalazin-1-yl)benzyl)sulfamide hydrochloride] was tested, and the IC50 was 1000 to 10000 nM. For `COc1ccc2c(=O)[nH]nc(-c3ccc(CNS(N)(=O)=O)cc3)c2c1` [Compound No. 103, N-(4-(7-methoxy-4-oxo-3,4-dihydrophthalazin-1-yl)benzyl)sulfamide hydrochloride], the IC50 was less than 1000 nM. For `COc1cc2c(-c3ccc(CNS(N)(=O)=O)cc3)n[nH]c(=O)c2cc1OC` [Compound No. 104, N-(4-(6,7-dimethoxy-4-oxo-3,4-dihydrophthalazin-1-yl)benzyl)sulfamide hydrochloride], the IC50 was less than 1000 nM. In the case of `COc1ccc2c(=O)n(C)nc(-c3ccc(CNS(N)(=O)=O)cc3)c2c1` [Compound No. 105, N-(4-(7-methoxy-3-methyl-4-oxo-3,4-dihydrophthalazin-1-yl)benzyl)sulfamide hydrochloride], the IC50 is reported as 1000 to 10000 nM. In the case of `COc1ccc2c(-c3ccc(CNS(N)(=O)=O)cc3)n[nH]c(=O)c2c1` [Compound No. 106, N-(4-(6-methoxy-4-oxo-3,4-dihydrophthalazin-1-yl)benzyl)sulfamide hydrochloride], the IC50 is reported as 1000 to 10000 nM. For `COc1ccc2c(-c3ccc(CNS(N)(=O)=O)cc3)nn(C)c(=O)c2c1` [Compound No. 107, N-(4-(6-methoxy-3-methyl-4-oxo-3,4-dihydrophthalazin-1-yl)benzyl)sulfamide hydrochloride], the IC50 was greater than 10000 nM.
